Assay results from article PMC7951137 (ACS chemical neuroscience, 2021).
Like-named read-outs stand apart in the source and are kept apart here. [ ]: non-standard residue; d: D form.

What was measured:
[1] = biological target: T1, wildtype hMC4R (Homo sapiens, UniProt P32245); assay: cAMP AlphaScreen antagonist assay; type: cell-based
[2] = biological target: T2, D189Q hMC4R (Homo sapiens, UniProt P32245, D189Q); assay: cAMP AlphaScreen antagonist assay; type: cell-based
[3] = biological target: D189A hMC4R (Homo sapiens, UniProt P32245, D189A); assay: cAMP AlphaScreen antagonist assay; type: cell-based
[4] = biological target: D189K hMC4R (Homo sapiens, UniProt P32245, D189K); assay: cAMP AlphaScreen antagonist assay; type: cell-based
[5] = biological target: T1, wildtype hMC4R; assay: cAMP AlphaScreen agonist / inverse agonist assay; type: cell-based; conditions: WT hMC4R; basal = signal at 10^−12 M
[6] = biological target: D189E hMC4R (Homo sapiens, UniProt P32245, D189E); assay: cAMP AlphaScreen agonist / inverse agonist assay; type: cell-based; conditions: for Inverse agonist percent decrease from basal activity: D189E hMC4R
[7] = biological target: D189N hMC4R (Homo sapiens, UniProt P32245, D189N); assay: cAMP AlphaScreen agonist / inverse agonist assay; type: cell-based; conditions: for Inverse agonist percent decrease from basal activity: D189N hMC4R
[8] = biological target: T2, D189Q hMC4R; assay: cAMP AlphaScreen agonist / inverse agonist assay; type: cell-based; conditions: for Inverse agonist percent decrease from basal activity: D189Q hMC4R
[9] = biological target: D189S hMC4R (Homo sapiens, UniProt P32245, D189S); assay: cAMP AlphaScreen agonist / inverse agonist assay; type: cell-based; conditions: for Inverse agonist percent decrease from basal activity: D189S hMC4R
[10] = biological target: T3, human melanocortin-4 receptor (hMC4R), wild type, N-terminal FLAG-tagged (human, UniProt P32245 1-332); assay: radioligand binding
[11] = biological target: T3, human melanocortin-4 receptor (hMC4R), …; assay: radioligand binding; remark: listed apart in the source

Chain of D189A hMC4R (P32245 whole entry D189A): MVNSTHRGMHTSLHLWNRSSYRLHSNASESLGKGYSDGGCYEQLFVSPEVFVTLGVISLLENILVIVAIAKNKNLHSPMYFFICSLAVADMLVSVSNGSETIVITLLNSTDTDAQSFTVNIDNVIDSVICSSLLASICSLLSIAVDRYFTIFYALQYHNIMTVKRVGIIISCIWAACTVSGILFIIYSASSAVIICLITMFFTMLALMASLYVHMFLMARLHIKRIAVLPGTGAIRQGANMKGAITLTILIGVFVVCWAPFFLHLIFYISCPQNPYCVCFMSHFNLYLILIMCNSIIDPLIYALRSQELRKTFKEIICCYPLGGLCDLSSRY
Chain of D189E hMC4R (P32245 whole entry D189E): as the sequence (P32245 whole entry D189A) above, with A189E counted along it
T2 sequence (P32245 whole entry D189Q): as the sequence (P32245 whole entry D189A) above, with A189Q counted along it
Chain of D189K hMC4R (P32245 whole entry D189K): as the sequence (P32245 whole entry D189A) above, with A189K counted along it
Chain of D189N hMC4R (P32245 whole entry D189N): as the sequence (P32245 whole entry D189A) above, with A189N counted along it
T3 sequence (P32245 whole entry): as the sequence (P32245 whole entry D189A) above, with A189D counted along it
T1 sequence (P32245 whole entry): as the sequence (P32245 whole entry D189A) above, with A189D counted along it
Chain of D189S hMC4R (P32245 whole entry D189S): as the sequence (P32245 whole entry D189A) above, with A189S counted along it

Row | IC50 [10] | IC50 [11] | Molecule | Kb [1] | Kb [2] | Kb [3] | Kb [4] | Inverse agonist percent decrease from basal signal [5] | EC50 [6] | Inverse agonist percent decrease from basal activity [6] | EC50 [7] | Inverse agonist percent decrease from basal activity [7] | Inverse agonist percent decrease from basal activity [8] | EC50 [9] | Inverse agonist percent decrease from basal activity [9] | EC50 [8]
1 |  |  | C[C@@H]1NC(=O)[C@H](CO)NC(=O)[C@H](Cc2ccccc2)NC(=O)[C@H](Cc2ccccc2)NC(=O)[C@H](CCCNC(=N)N)NC(=O)[C@@H]2CCCN2C(=O)[C@H]2CCCN2C(=O)[C@H](Cc2ccccc2)NC1=O [MDE3–85c, c[Pro-Arg-Phe-Phe-Ser-Ala-Phe-DPro]] | 10 nM | 158 nM | 1000 nM | 501 nM | −25% | 11 ± 4 nM | −25% | 100 ± 40 nM | −20% | −35% | 600 ± 400 nM | −25% | 
2 |  |  | CC[C@@H]1NC(=O)[C@H](Cc2ccccc2)NC(=O)[C@H](Cc2ccccc2)NC(=O)[C@H](CCCNC(=N)N)NC(=O)[C@@H]2CCCN2C(=O)[C@H]2CCCN2C(=O)[C@H](Cc2ccccc2)NC(=O)[C@H](C)NC1=O [MDE3–119-2c, c[Pro-Arg-Phe-Phe-Abu-Ala-Phe-DPro]] |  |  |  |  | −15% |  |  |  |  |  |  |  | 
3 |  |  | C[C@@H]1NC(=O)[C@H](CCC(=O)O)NC(=O)[C@H](Cc2ccccc2)NC(=O)[C@H](Cc2ccccc2)NC(=O)[C@H](CCCNC(=N)N)NC(=O)[C@@H]2CCCN2C(=O)[C@H]2CCCN2C(=O)[C@H](Cc2ccccc2)NC1=O [MDE3–119-5c, c[Pro-Arg-Phe-Phe-Glu-Ala-Phe-DPro]] | 100 nM | 2000 nM | > 3160 nM | > 3160 nM | −35% | 1100 nM | −40% | 3000 nM | −5% | −40% |  |  | 7000 nM
4 |  |  | C[C@@H]1NC(=O)[C@@H](CN)NC(=O)[C@H](Cc2ccccc2)NC(=O)[C@H](Cc2ccccc2)NC(=O)[C@H](CCCNC(=N)N)NC(=O)[C@@H]2CCCN2C(=O)[C@H]2CCCN2C(=O)[C@H](Cc2ccccc2)NC1=O [MDE3–119-7c, c[Pro-Arg-Phe-Phe-DDap-Ala-Phe-DPro]] |  |  |  |  | −30% |  | −35% |  | −15% | −40% |  | −30% | 
5 |  |  | C[C@@H]1NC(=O)[C@H](CN)NC(=O)[C@H](Cc2ccccc2)NC(=O)[C@H](Cc2ccccc2)NC(=O)[C@H](CCCNC(=N)N)NC(=O)[C@@H]2CCCN2C(=O)[C@H]2CCCN2C(=O)[C@H](Cc2ccccc2)NC1=O [MDE3–119-8c, c[Pro-Arg-Phe-Phe-Dap-Ala-Phe-DPro]] |  |  |  |  | −50% |  | −55% |  | −15% | −45% |  | −35% | 
6 |  |  | C[C@@H]1NC(=O)[C@H](C)NC(=O)[C@H](Cc2ccccc2)NC(=O)[C@H](Cc2ccccc2)NC(=O)[C@H](CCCNC(=N)N)NC(=O)[C@@H]2CCCN2C(=O)[C@H]2CCCN2C(=O)[C@H](Cc2ccccc2)NC1=O [MDE3–154c, c[Pro-Arg-Phe-Phe-Ala-Ala-Phe-DPro]] |  | 251 nM | 2510 nM | 794 nM | −35% | 16 ± 2 nM | −25% |  |  | −25% |  |  | 
7 |  |  | C[C@@H]1NC(=O)[C@H](CC(N)=O)NC(=O)[C@H](Cc2ccccc2)NC(=O)[C@H](Cc2ccccc2)NC(=O)[C@H](CCCNC(=N)N)NC(=O)[C@@H]2CCCN2C(=O)[C@H]2CCCN2C(=O)[C@H](Cc2ccccc2)NC1=O [MDE5–108-10c, c[Pro-Arg-Phe-Phe-Asn-Ala-Phe-DPro]] |  |  |  |  | −30% |  | −25% |  | −20% | −45% |  | −20% | 
8 |  |  | c[Pro-Arg-Phe-Phe-His-Ala-Phe-DPro] [MDE3–119-13c] |  |  |  |  | −30% |  | −15% |  |  | −30% |  |  | 
9 | 3600 nM | 1300 nM | cyclo(PRFFDAF[dP]) [MDE3–119-4c] |  |  |  |  |  |  |  |  |  |  |  |  | 
10 | 2500 nM | 1400 nM | cyclo(PRFFEAF[dP]) [MDE3–119-5c] |  |  |  |  |  |  |  |  |  |  |  |  | 
